Measured values from patent publication US11046647B2, “Activators of the unfolded protein response” (The Board of Trustees of the University of Illinois, priority 2018, dated 2021).
Where “and” joins values, the source holds several entries; their conditions need not be identical. Equal entries are not always repeated.

Columns and labels:
[1] = test system: TYS-Luc (T47DERαY537S-Luc human breast cancer cells) tumors; experiment: Orthotopic TYS-Luc mouse xenograft, bioluminescent imaging (BLI); assay type: in vivo
Method: In a treatment and vehicle-controlled mouse tumor study, human breast cancer cells were engineered to contain both the lethal ERαY537S mutation found in metastatic breast cancer, and the gene for firefly luciferase—when the appropriate chemical is added, the firefly luciferase breaks down the chemical and light is produced. Using a sensitive detector called an imaging system, this allows us to image the tumors inside live mice. This is called bioluminescent imaging, or BLI. Large tumors were allowed to form. Then (−)-105 was injected daily under the skin for three weeks. Using the imaging system, the effect of (−)-105 on the tumors was monitored. At the same time the effect of the vehicle in which (−)-105 was dissolved on tumors was also monitored.
A study was performed to determine what happens after stopping treatment with (−)-105 (Table 2). The study was designed to show whether the micro-tumors would remain dormant, or whether they would regrow. At the end of the three-week treatment, there is residual material that gives off a tiny amount of light which are termed “micro-tumors”. Based on sensitivity of the imaging system, it is believed these micro-tumors contain anywhere from 0˜1,000 cancer cells; the micro-tumors will not be visible to the naked eye. Seeing them requires the powerful imaging system, or a microscope. To test whether these cells are either dead, or no longer dividing and are dormant, the cells two and 4 weeks after they stopped receiving any treatment were imaged. This study tested whether growing cancer cells have been eradicated; this study continues.
In a 3-week study, large breast tumors were present at start of treatment and regressed as shown in the image of FIG. 17. The study was performed using Orthotopic TYS-Luc (injected cells: T47DERαY537-Luc human breast cancer cells), e.g., the most lethal ERα mutation in human in metastatic breast cancer. Tumors were grown in NSG mice. Further details are provided in the Examples.
Experimental Details of the Xenografts: TYS-Luc cells (5,000,000 cells in Matrigel) were injected into the upper mammary fat pad of ovariectomized female NSG (SCID) mice (Jackson labs). After 10 weeks, on day 0, large tumors (size range: 100-600 mm^3) were present. Mice were treated with the vehicle used to dissolve (−)-105, or (−)-105 at 40 mg/kd daily by subcutaneous injection. For bioluminescent imaging (BLI) of the tumors, the mice were anesthetized with isoflurane and Lucerfin, the luciferase substrate, was injected into the mice. Flux, the total member of light photons hitting the detector in one second was measured using an IVIS ([…]). Shown is the flux (in millions of units per second) for the entire area containing each tumor, or an equivalent area when the tumor is tiny or undetectable and the percent change in tumor size at each time a measurement was taken (day 0, day 3, week 1, week 2, week 3). Then treatment was stopped, and another measurement was taken two weeks letter. Note that tumors were also measured with calipers. […] After three days all the (−)-105 tumors has declined to undetectable using calipers.

[2] = test system: MCF-7Y537S (MCF-7 ERαY537S-luciferase) cells; experiment: Long-term cell culture experiment, MCF-7 ERαY537S-luciferase; assay type: cell-based, human; settings: conditions as FIG. 15 (1 μM)
T47D cells = settings: 100, 500 and 1,000 nM; 24 hours; n=1
Method: One such change is loss of plasma membrane polarity. This is monitored using Annexin V. Dying cells also take up the dye propidium iodide. Propidium iodide (PI) fluoresces when it is intercalated into DNA. These assays monitor cells at specific stages of cell death.
FLOW CYTOMETRY (FITC) ASSAYS: Cells were seeded in 12-well plates, 75,000 cells/well, and allowed to adhere overnight. The next day, the indicated concentrations of raptinal (positive control), (−)-105, (±)-105, and (+)-105 were added and allowed to incubate at 37° C. for 24 hours (Final Volume: 1 ml, 0.1% DMSO). After incubation, cells were harvested and resuspended in 350 μl of cold Annexin binding buffer (10 mM HEPES, 140 mM NaCl, 2.5 mM CaCl2, pH 7.4) premixed with Annexin V-FITC and PI dyes. Samples were analyzed on a BD Biosciences LSRII flow cytometer, and data analysis was performed using FSC Express Version 5-6. Cell death was assessed relative to a DMSO treated control.
T47D, human breast cancer cells were plated at 75,000 cells/well. The next day, DMSO vehicle, 10 μM raptinal (control for 100% cell death), or 0, 50, 100 500 and 1,000 nM of BHPI or (±)-105, or 1,000 nM ICI/fulvestrant or 1,000 nM OHT was added. After 24 hours viable cells were determined by FACS using annexin V-FITC and propidium iodide dyes. (n=3 independent experiments ±SEM).
75,000 ERα positive T47D, human breast cancer cells, were plated/well. The next day, DMSO vehicle, 10 μM raptinal (control for 100% cell death), or 100 500 and 1,000 nM of (+)-105, or (−)-105 was added. After 24 hours viable cells were determined by FACS using annexin V-FITC and propidium iodide dyes. (n=1).

[3] = 2 weeks after treatment stopped, per mouse
[4] = 4 weeks after treatment stopped, per mouse

Structure (SMILES): O=C1Nc2c(C(F)(F)F)cccc2C1(c1ccc(O)cc1)c1ccc(OC(F)(F)F)cc1 (single isomer, unassigned; (-)) [(−)-105, 3-(4-hydroxyphenyl)-3-(4-(trifluoromethoxy)phenyl)-7-(trifluoromethyl)indolin-2-one]
- tumor regrowth after sub-therapeutic dose ([1]; 10 mg/kg oral): tumors did regrow
- Week 2 No Drug % Change in Tumor Flux [1, 3]: −99.95% and −99.84% and −100% (2×) and −99.991%
- Week 2 No Drug Tumor Flux [1, 3]: 0.13 millions of photons/sec and 0.11 millions of photons/sec and 0 millions of photons/sec (2×) and 0.17 millions of photons/sec
- health / toxicity of treated mice ([1]; 3-week treatment): No toxicity
- micro-tumor regrowth after stopping treatment ([1]; 4 weeks after stopping treatment): NO “MICRO-TUMOR” REGROWTH
- Week 4 No Drug % Change in Tumor Flux [1, 4]: −99.98% and −99.88% and −100% and −99.997% and −99.998%
- Week 4 No Drug Tumor Flux [1, 4]: 0.038 millions of photons/sec (2×) and 0.084 millions of photons/sec and 0 millions of photons/sec and 0.048 millions of photons/sec
- Day 3 Flux ([1]; Day 3, per mouse, 40 mg/kg daily, 40 mg/kg): 0.22 millions of photons/s and 0.043 millions of photons/s and 0.40 millions of photons/s and 0.29 millions of photons/s and 0.17 millions of photons/s
- Day 3 % Change in Tumor Flux ([1]; Day 3 vs Day 0, per mouse): −99.99% (2×) and −99.98% (2×) and −99.45%
- Day 7 Flux ([1]; Day 7, per mouse): 0.082 millions of photons/s and 0.041 millions of photons/s and 0.17 millions of photons/s and 0.059 millions of photons/s and 0.18 millions of photons/s
- Day 7 % Change in Tumor Flux ([1]; Day 7 vs Day 0, per mouse): −99.996% (2×) and −99.99% (2×) and −99.77%
- Day 14 Flux ([1]; Day 14, per mouse): 0.246 millions of photons/s and 0.039 millions of photons/s and 0.245 millions of photons/s and 0 millions of photons/s and 0.071 millions of photons/s
- Day 14 % Change in Tumor Flux ([1]; Day 14 vs Day 0, per mouse): −99.99% (2×) and −99.66% and −100% and −99.996%
- Day 21 Flux ([1]; Day 21, per mouse): 0.051 millions of photons/s and 0.16 millions of photons/s and 0.14 millions of photons/s and 0 millions of photons/s and 0.046 millions of photons/s
- Day 21 % Change in Tumor Flux ([1]; Day 21 vs Day 0, per mouse): −99.998% and −99.94% and −99.81% and −100% and −99.997%
- tumor regrowth upon treatment cessation ([1]; after 21 daily doses 40 mg/kg i.p.): tumors did not regrow
- tumor regression by BLI, 4 of the 5 tumors ([1]; after 3 days of treatment): more than 99.9%
- tumor regression by BLI, all five tumors ([1]; after 3 days of treatment): more than 99%
- tumor size using calipers, all 5 mice ([1]; after 3 days of treatment): undetectable
- tumor regression by BLI, 3 of the remaining 4 mice ([1]; after three weeks): more than 99.9%
- effect on Y537S tumors (TYS cell line) ([1]; dose-dependent, i.p. and oral administration): eradicates Y537S tumors
- tolerability ([1]; i.p. and oral administration): tolerated
- Start Recovery Flux ([1]; start of no-drug recovery after 3 weeks treatment, per mouse): 0.16 millions of photons/sec and 0.14 millions of photons/sec and 0 millions of photons/sec and 0.046 millions of photons/sec and 0.051 millions of photons/sec
- Start No Drug: % change in Tumor Flux ([1]; start of no-drug recovery, per mouse): −99.94% and −99.81% and −100% and −99.997%
- microtumor regrowth after stopping treatment ([1]; two weeks after treatment was stopped): had not started growing again
- tumor size using calipers, all 5 tumors ([1]; within seven days): undetectable size
- eradication of cells in long-term experiment [2]: eradicates
- activity of enantiomers (cell death) (T47D cells): active
